Experimental data: PubChem BioAssay (NCI)
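Each compound was tested at five concentrations against cells in 96-well plates for 48 hours. GI50 is the concentration that inhibits growth by half. TGI: concentration producing complete growth inhibition.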

What was measured:
Test in all cases: inhibition of tumour cell growth, NCI panel, 48 h
786-0 renal = tested on: 786-0 renal
COLO 205 colon = tested on: COLO 205 colon
HCT-15 colon = tested on: HCT-15 colon
M14 melanoma = tested on: M14 melanoma
MDA-MB-435 = tested on: MDA-MB-435
PC-3 prostate = tested on: PC-3 prostate
SK-MEL-5 melanoma = tested on: SK-MEL-5 melanoma
SW-620 colon = tested on: SW-620 colon
U251 CNS = tested on: U251 CNS
UACC-257 melanoma = tested on: UACC-257 melanoma

Compound | GI50 (786-0 renal) [µM] | TGI (786-0 renal) [µM] | GI50 (COLO 205 colon) [µM] | TGI (COLO 205 colon) [µM] | GI50 (HCT-15 colon) [µM] | TGI (HCT-15 colon) [µM] | GI50 (M14 melanoma) [µM] | TGI (M14 melanoma) [µM] | GI50 (MDA-MB-435) [µM] | TGI (MDA-MB-435) [µM] | GI50 (PC-3 prostate) [µM] | TGI (PC-3 prostate) [µM] | GI50 (SK-MEL-5 melanoma) [µM] | TGI (SK-MEL-5 melanoma) [µM] | GI50 (SW-620 colon) [µM] | TGI (SW-620 colon) [µM] | GI50 (U251 CNS) [µM] | TGI (U251 CNS) [µM] | GI50 (UACC-257 melanoma) [µM] | TGI (UACC-257 melanoma) [µM]
COc1cc2c3c(n(CCCN(C)CCO)c(=O)c2cc1OC)-c1cc2c(cc1C3=O)OCO2 | 2.92 | > 100 | 12.6 | > 100 | 6.79 | > 100 | 1.48 | > 68.9 | 16.6 | > 100 | 8.47 | > 62.6 | 4.77 | 33.5 | 0.879 | > 55.2 | 0.814 | > 100 | > 62.6 | > 100
Oc1ccc(/C=C/c2cc(O)cc3c2C(c2cc(O)cc(O)c2)C(c2ccc(O)c(O)c2)O3)cc1 (centres undefined) |  | > 100 |  | 45.1 |  | 45.4 |  | > 100 |  | > 100 |  | > 100 |  | 34.7 |  | > 100 |  | > 100 |  | > 100
CC(Cl)CN1c2ccccc2Sc2ccc(Cl)cc21 (centres undefined) |  | > 10 |  | > 10 |  | > 10 |  | > 10 |  | > 10 |  | > 10 |  | > 10 |  | > 10 |  | > 10 |  | > 10
c1ccc2c(c1)c1ccccc1c1ccccc21 | > 100 | > 100 | > 100 | > 100 | > 100 | > 100 | > 100 | > 100 | > 100 | > 100 | > 100 | > 100 | > 100 | > 100 | > 100 | > 100 | > 100 | > 100 | > 100 | > 100
NCCCOc1cc2ccccc2cc1C(=O)NCCCOc1cc2ccccc2cc1C(=O)Nc1ccc(Cl)cc1O | 0.199 | 0.441 | 1.7 | 3.34 | 0.658 | 2.32 | 0.881 | 2.55 | 0.899 | 2.6 | 0.306 | 0.974 | 1.36 | 2.8 | 0.189 | 0.381 | 0.187 | 0.35 | 1.23 | 2.59
CN1C(NNC(=O)c2cccnc2)=NS(=O)(=O)c2cc(Cl)ccc21 | > 100 | > 100 | > 100 | > 100 | > 100 | > 100 | > 100 | > 100 | > 100 | > 100 | > 100 | > 100 | > 100 | > 100 | > 100 | > 100 | > 100 | > 100 | > 100 | > 100
NC(=O)CNc1ccc([As]=[As]c2ccc(NCC(N)=O)cc2)cc1 (centres undefined) | 3.21 | 14.3 | 7.83 | 22 | 4.21 | 60.7 | 5.02 | 20.6 | 6.24 | 56.6 | 2.7 | 22.7 | 1.95 | 5.17 | 2.54 | 15.4 | 1.57 | 23.2 | 12.4 | 39.6
Cc1sc2c(c1C)C(c1ccc(Cl)cc1)=N[C@@H](CC(=O)Nc1ccc(OCCOCCOCCOCCNc3cccc4c3C(=O)N(C3CCC(=O)NC3=O)C4=O)cc1)c1nnc(C)n1-2 (some centres undefined) |  | > 100 | < 0.0279 | > 82.4 | 0.394 | > 100 | 0.388 | > 100 | < 0.0453 | > 100 | < 0.02 | > 100 | 0.195 | 27.5 | 0.0787 | > 100 | 0.476 | > 100 | 10.6 | > 100
C=C(C)[C@@H]1CC[C@]2(C)[C@H](CC[C@@H]3[C@@H]([C@@](C)(O)CCC=C(C)C)CC[C@]32C)[C@@]1(C)CCC(=O)O | 18.7 | 36.7 | 17.7 | 35.6 | 15.4 | 31 | 16.4 | 36.1 | 17.9 | 38.6 | 11.3 | 27.2 | 15.2 | 29 | 28.5 | > 100 | 16.6 | 31.8 | 23.8 | 96.4
Cn1c(=S)c2[nH]c(SCCCc3ccccc3)nc2n(C)c1=O |  | > 100 |  | 25.4 |  | > 100 |  | > 100 |  | > 100 |  | > 100 |  | 33.5 |  | > 100 |  | > 100 |  | 44.8
COC(=O)C(=O)CC(=O)c1cccc(OC)c1 |  | > 100 |  | > 100 |  | > 100 |  | > 100 |  | > 100 |  | > 100 |  | > 100 |  | > 100 |  | > 100 |  | > 100
COc1cc(OC)c2sc(-c3ccc(-n4cncc4-c4cc(OC)c(OC)c(OC)c4)cc3)nc2c1 | 7.38 | > 100 | 4.51 | > 100 | 5.48 | > 100 | 7.91 | > 100 | 3.41 | > 100 | 2.54 | > 100 | 2.46 | > 100 | 5.96 | > 100 | 4.15 | > 100 | > 100 | > 100
